# In patent US12227490B2, “Cereblon binding compounds, compositions thereof, and methods of treatment therewith” (Celgene Corporation, priority 2020, dated 2025):
# Where a name gives a salt, the structure may show the parent alone.
# Target: T1, AR (androgen receptor) protein in VCaP cells (Homo sapiens, UniProt P10275)
# T1 construct: endogenous in cells; host or cells: VCaP cells
# T1 sequence (P10275 1-920): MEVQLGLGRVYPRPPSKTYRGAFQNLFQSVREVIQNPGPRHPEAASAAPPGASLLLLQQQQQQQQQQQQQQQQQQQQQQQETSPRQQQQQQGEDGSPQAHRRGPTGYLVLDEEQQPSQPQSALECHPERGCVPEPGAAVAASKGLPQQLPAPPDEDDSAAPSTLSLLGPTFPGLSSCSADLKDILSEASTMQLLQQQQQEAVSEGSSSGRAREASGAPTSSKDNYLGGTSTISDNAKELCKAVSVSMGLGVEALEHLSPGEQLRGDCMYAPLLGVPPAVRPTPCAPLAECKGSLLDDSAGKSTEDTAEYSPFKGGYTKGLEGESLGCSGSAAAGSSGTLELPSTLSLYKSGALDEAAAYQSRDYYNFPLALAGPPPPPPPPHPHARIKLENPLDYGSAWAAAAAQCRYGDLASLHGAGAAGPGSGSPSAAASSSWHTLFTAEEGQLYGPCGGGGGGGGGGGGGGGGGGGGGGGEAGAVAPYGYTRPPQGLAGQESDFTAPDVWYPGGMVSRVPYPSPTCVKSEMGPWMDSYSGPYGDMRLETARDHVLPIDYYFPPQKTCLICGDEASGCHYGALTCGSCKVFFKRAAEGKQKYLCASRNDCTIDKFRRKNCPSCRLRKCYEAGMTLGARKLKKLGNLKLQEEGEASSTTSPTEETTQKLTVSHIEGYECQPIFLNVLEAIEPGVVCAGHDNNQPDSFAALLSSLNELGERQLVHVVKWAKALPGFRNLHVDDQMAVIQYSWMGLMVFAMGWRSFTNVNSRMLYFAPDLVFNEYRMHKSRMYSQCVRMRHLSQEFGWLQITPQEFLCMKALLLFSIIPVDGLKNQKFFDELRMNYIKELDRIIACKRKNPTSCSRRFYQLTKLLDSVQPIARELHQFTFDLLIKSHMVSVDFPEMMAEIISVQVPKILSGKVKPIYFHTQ
# Experiment: VCAP AR Degradation Assay
# Assay type: cell-based
# Settings: 24 h, AR ELISA; for DC50: concentration of compound when AR level = 50% of DMSO control; for remaining activity at up to 5 µM: top concentration 5 μM, read-out: Y (lowest measured AR level normalized to DMSO control, AR degradation efficiency)
# Description: VCAP AR Degradation Assay. Test compounds were pre-dispensed into a Corning CellBind 96-well clear bottom plate (Cat #3300) using an acoustic dispenser to make a 10-point concentration series at 1:3 dilution for each compound. The final top concentration of each compound was 5 μM. DMSO at a final concentration of 0.1% was used as a control. VCaP cells cultured in DMEM with 8% fetal bovine serum (FBS) were seeded at 50K cells per well in a 200 μL volume into the compound plate and incubated at 37° C. in a CO2 incubator for 24 h. The medium was carefully removed from the cells and the plate was placed on ice. One hundred μL of ice-cold 1× cell lysis buffer from Cell Signaling Technologies (Cat #9803) was added to each well of the cells and the plate was incubated at 4° C. on a shaker for 1 h. Fifteen μL of cell lysate was used for AR ELISA detection using a PathScan Total Sandwich AR ELISA kit (Cell Signaling Technology, Cat #12580). AR levels in compound-treated wells were normalized to that of DMSO control and expressed as percent of control (PoC) (y). A Four Parameter Logistic Model (Sigmoidal Dose-Response Model) was used to determine the compound's DC50, and EC50, using the following equation: y=(A+((B−A)/(1+((C/x)^D)))) • A=YMin (lowest AR level normalized to DMSO control in response to compound treatment, as determined by curve fit) • B=YMax (maximum AR level as determined by curve fit) • C=EC50 • D=Hill Slope • x=compound concentration • EC50=the concentration of compound when y=(YMax−YMin)/2 • DC50=the concentration of the compound when y=50% of DMSO control (50% AR degradation) • y=AR protein level normalized to DMSO control
# The lowest measured AR level normalized to DMSO control in response to compound treatment, termed Y value, was used to characterize the compound-mediated AR degradation efficiency.
SMILES,DC50 [nM],remaining activity at up to 5 µM [%]
"C[C@@H]1CN(CCO[C@H]2CC[C@H](N3C(=S)N(c4ccc(C#N)c(C(F)(F)F)c4)C(=O)C3(C)C)CC2)C[C@H](C)N1CC(=O)Nc1cccc2c(C3CCC(=O)NC3=O)nn(C)c12 (stereo partly drawn) [Cmpd 1, 2-((2S,6R)-4-(2-((trans-4-(3-(4-Cyano-3-(trifluoromethyl)phenyl)-5,5-dimethyl-4-oxo-2-thioxoimidazolidin-1-yl)cyclohexyl)oxy)ethyl)-2,6-dimethylpiperazin-1-yl)-N-(3-(2,6-dioxopiperidin-3-yl)-1-methyl-1H-indazol-7-yl)acetamide hydrochloride]",< 2,0 to 25
"C[C@@H]1CN(CCC[C@H]2CC[C@H](N3C(=S)N(c4ccc(C#N)c(C(F)(F)F)c4)C(=O)C3(C)C)CC2)C[C@H](C)N1CC(=O)Nc1cccc2c(C3CCC(=O)NC3=O)nn(C)c12 (stereo partly drawn) [Cmpd 2, 2-((2R,6S)-4-(3-(trans-4-(3-(4-cyano-3-(trifluoromethyl)phenyl)-5,5-dimethyl-4-oxo-2-thioxoimidazolidin-1-yl)cyclohexyl)propyl)-2,6-dimethylpiperazin-1-yl)-N-(3-(2,6-dioxopiperidin-3-yl)-1-methyl-1H-indazol-7-yl)acetamide hydrochloride]",2 to 5,30 to 50
"C[C@@H]1CN(CCO[C@H]2CC[C@H](N3C(=S)N(c4ccc(C#N)c(Cl)c4)C(=O)C3(C)C)CC2)C[C@H](C)N1CC(=O)Nc1cccc2c(C3CCC(=O)NC3=O)nn(C)c12 (stereo partly drawn) [Cmpd 3, 2-((2R,6S)-4-(2-((trans-4-(3-(3-Chloro-4-cyanophenyl)-5,5-dimethyl-4-oxo-2-thioxoimidazolidin-1-yl)cyclohexyl)oxy)ethyl)-2,6-dimethylpiperazin-1-yl)-N-(3-(2,6-dioxopiperidin-3-yl)-1-methyl-1H-indazol-7-yl)acetamide hydrochloride]",< 2,0 to 25
"C[C@@H]1CN(CCO[C@H]2CC[C@H](N3C(=S)N(c4cnc(C#N)c(C(F)(F)F)c4)C(=O)C3(C)C)CC2)C[C@H](C)N1CC(=O)Nc1cccc2c(C3CCC(=O)NC3=O)nn(C)c12 (stereo partly drawn) [Cmpd 4, 2-((2R,6S)-4-(2-((trans-4-(3-(6-Cyano-5-(trifluoromethyl)pyridin-3-yl)-5,5-dimethyl-4-oxo-2-thioxoimidazolidin-1-yl)cyclohexyl)oxy)ethyl)-2,6-dimethylpiperazin-1-yl)-N-(3-(2,6-dioxopiperidin-3-yl)-1-methyl-1H-indazol-7-yl)acetamide hydrochloride]",< 2,25 to 30
"C[C@@H]1CN(CCCO[C@H]2CC[C@H](N3C(=S)N(c4ccc(C#N)c(Cl)c4)C(=O)C3(C)C)CC2)C[C@H](C)N1CC(=O)Nc1cccc2c(C3CCC(=O)NC3=O)nn(C)c12 (stereo partly drawn) [Cmpd 5, 2-((2R,6S)-4-(3-((trans-4-(3-(3-Chloro-4-cyanophenyl)-5,5-dimethyl-4-oxo-2-thioxoimidazolidin-1-yl)cyclohexyl)oxy)propyl)-2,6-dimethylpiperazin-1-yl)-N-(3-(2,6-dioxopiperidin-3-yl)-1-methyl-1H-indazol-7-yl)acetamide hydrochloride]",< 2,30 to 50
"C[C@@H]1CN(CCO[C@H]2CC[C@H](N3C(=S)N(c4cnc(C#N)c(Cl)c4)C(=O)C3(C)C)CC2)C[C@H](C)N1CC(=O)Nc1cccc2c(C3CCC(=O)NC3=O)nn(C)c12 (stereo partly drawn) [Cmpd 6, 2-((2R,6S)-4-(2-((trans-4-(3-(5-Chloro-6-cyanopyridin-3-yl)-5,5-dimethyl-4-oxo-2-thioxoimidazolidin-1-yl)cyclohexyl)oxy)ethyl)-2,6-dimethylpiperazin-1-yl)-N-(3-(2,6-dioxopiperidin-3-yl)-1-methyl-1H-indazol-7-yl)acetamide hydrochloride]",< 2,0 to 25
"C[C@@H]1CN(CCCO[C@H]2CC[C@H](N3C(=S)N(c4cnc(C#N)c(C(F)(F)F)c4)C(=O)C3(C)C)CC2)C[C@H](C)N1CC(=O)Nc1cccc2c(C3CCC(=O)NC3=O)nn(C)c12 (stereo partly drawn) [Cmpd 7, 2-((2R,6S)-4-(3-((trans-4-(3-(6-Cyano-5-(trifluoromethyl)pyridin-3-yl)-5,5-dimethyl-4-oxo-2-thioxoimidazolidin-1-yl)cyclohexyl)oxy)propyl)-2,6-dimethylpiperazin-1-yl)-N-(3-(2,6-dioxopiperidin-3-yl)-1-methyl-1H-indazol-7-yl)acetamide hydrochloride]",< 2,0 to 25
"C[C@@H]1CN(CCCO[C@H]2CC[C@H](N3C(=S)N(c4ccc(C#N)c(C(F)(F)F)c4)C(=O)C3(C)C)CC2)C[C@H](C)N1CC(=O)Nc1cccc2c(C3CCC(=O)NC3=O)nn(C)c12 (stereo partly drawn) [Cmpd 8, 2-((2R,6S)-4-(3-((trans-4-(3-(4-Cyano-3-(trifluoromethyl)phenyl)-5,5-dimethyl-4-oxo-2-thioxoimidazolidin-1-yl)cyclohexyl)oxy)propyl)-2,6-dimethylpiperazin-1-yl)-N-(3-(2,6-dioxopiperidin-3-yl)-1-methyl-1H-indazol-7-yl)acetamide]",< 2,25 to 30
"C[C@@H]1CN(CCC[C@H]2CC[C@H](N3C(=S)N(c4cnc(C#N)c(C(F)(F)F)c4)C(=O)C3(C)C)CC2)C[C@H](C)N1CC(=O)Nc1cccc2c(C3CCC(=O)NC3=O)nn(C)c12 (stereo partly drawn) [Cmpd 9, 2-((2R,6S)-4-(3-(trans-4-(3-(6-Cyano-5-(trifluoromethyl)pyridin-3-yl)-5,5-dimethyl-4-oxo-2-thioxoimidazolidin-1-yl)cyclohexyl)propyl)-2,6-dimethylpiperazin-1-yl)-N-(3-(2,6-dioxopiperidin-3-yl)-1-methyl-1H-indazol-7-yl)acetamide]",2 to 5,25 to 30
"C[C@@H]1CN(CCC[C@H]2CC[C@H](N3C(=S)N(c4cnc(C#N)c(Cl)c4)C(=O)C3(C)C)CC2)C[C@H](C)N1CC(=O)Nc1cccc2c(C3CCC(=O)NC3=O)nn(C)c12 (stereo partly drawn) [Cmpd 10, 2-((2R,6S)-4-(3-(trans-4-(3-(5-Chloro-6-cyanopyridin-3-yl)-5,5-dimethyl-4-oxo-2-thioxoimidazolidin-1-yl)cyclohexyl)propyl)-2,6-dimethylpiperazin-1-yl)-N-(3-(2,6-dioxopiperidin-3-yl)-1-methyl-1H-indazol-7-yl)acetamide]",2 to 5,30 to 50
"C[C@@H]1CN(CCC[C@H]2CC[C@H](N3C(=S)N(c4ccc(C#N)c(Cl)c4)C(=O)C3(C)C)CC2)C[C@H](C)N1CC(=O)Nc1cccc2c(C3CCC(=O)NC3=O)nn(C)c12 (stereo partly drawn) [Cmpd 11, 2-((2S,6R)-4-(3-(trans-4-(3-(3-Chloro-4-cyanophenyl)-5,5-dimethyl-4-oxo-2-thioxoimidazolidin-1-yl)cyclohexyl)propyl)-2,6-dimethylpiperazin-1-yl)-N-(3-(2,6-dioxopiperidin-3-yl)-1-methyl-1H-indazol-7-yl)acetamide]",5 to 20,30 to 50
"C[C@@H]1C[C@@H](CCO[C@H]2CC[C@H](N3C(=S)N(c4ccc(C#N)c(C(F)(F)F)c4)C(=O)C3(C)C)CC2)C[C@H](C)N1CC(=O)Nc1cccc2c(C3CCC(=O)NC3=O)nn(C)c12 (stereo partly drawn) [Cmpd 12, 2-((2R,4s,6S)-4-(2-((trans-4-(3-(4-Cyano-3-(trifluoromethyl)phenyl)-5,5-dimethyl-4-oxo-2-thioxoimidazolidin-1-yl)cyclohexyl)oxy)ethyl)-2,6-dimethylpiperidin-1-yl)-N-(3-(2,6-dioxopiperidin-3-yl)-1-methyl-1H-indazol-7-yl)acetamide hydrochloride]",2 to 5,0 to 25
